Assay results as given in US8357717B2, “Spiro group-containing amide compounds having bradykinin 1 receptor (B1R) activity” (Gruenenthal GmbH, priority 2009, dated 2013).

What was measured:
[1] = molecular target: T1, B1R receptor of the rat (rB1R) (Rattus norvegicus, UniProt P97583); experiment: FLIPR Ca2+ functional study on bradykinin receptor 1, rB1R cells (CHO K1); format: cell-based; settings: 10 μM test substance; CHO K1 cells with rat B1R; agonist Des-Arg9-bradykinin at EC80; read-out: B1R antagonism, rat [10 μM] % inhibition
T1 construct: expressed in transfected cells; host or cells: CHO K1 cells, stably transfected
T1 sequence (P97583 1-337): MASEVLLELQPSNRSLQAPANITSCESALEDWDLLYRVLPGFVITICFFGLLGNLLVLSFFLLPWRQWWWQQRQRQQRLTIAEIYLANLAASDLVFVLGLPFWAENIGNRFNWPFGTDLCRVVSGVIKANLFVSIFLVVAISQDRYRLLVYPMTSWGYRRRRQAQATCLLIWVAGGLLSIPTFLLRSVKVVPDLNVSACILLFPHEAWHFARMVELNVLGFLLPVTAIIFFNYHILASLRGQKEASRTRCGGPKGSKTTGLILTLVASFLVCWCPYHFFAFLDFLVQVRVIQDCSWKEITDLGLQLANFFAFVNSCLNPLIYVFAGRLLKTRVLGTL
Experimental: (§1) The agonistic or antagonistic activity of substances can be quantified on the bradykinin receptor 1 (B1R) of the species human and rat using ectopically expressing cell lines (CHO K1 cells) and with the aid of a Ca^2+-sensitive dye (Fluo-4) using a fluorescent imaging plate reader (FLIPR). The indication in % activation is based on the Ca^2+ signal after addition of Lys-Des-Arg^9-bradykinin (0.5 nM) or Des-Arg^9-bradykinin (100 nM). Antagonists lead to suppression of the Ca^2+ influx after the addition of the agonist. % Inhibition compared with the maximum achievable inhibition is indicated.
(§2) The agonistic or antagonistic activity of substances can be determined on the bradykinin receptor 1 (B1R) of the species human and rat using the following assay. According to this assay, the Ca^2+ influx through the channel is quantified with the aid of a Ca^2+-sensitive dye (Fluo-4 type, Molecular Probes Europe BV, Leiden, Netherlands) using a Fluorescent Imaging Plate Reader (FLIPR, Molecular Devices, Sunnyvale, USA).
(§3) Chinese hamster ovary cells (CHO K1 cells) which have been stably transfected with the human B1R gene (hB1R cells) or with the B1R gene of the rat (rB1R cells) are used. For functional studies, the cells are plated out on black 96-well plates having a clear base (BD Biosciences, Heidelberg, Germany or Greiner, Frickenhausen, Germany) in a density of 20,000-35,000 cells/well. The cells are left overnight at 37° C. and with 5% CO2 in culture medium (hB1R cells: Nutrient Mixture Ham's F12, Gibco Invitrogen GmbH, Karlsruhe, Germany or DMEM, Sigma-Aldrich, Taufkirchen, Germany; rB1R cells: D-MEM/F12, Gibco Invitrogen GmbH, Karlsruhe, Germany), with 10 vol. % FBS (fetal bovine serum, Gibco Invitrogen GmbH, Karlsruhe, Germany or PAN Biotech GmbH, Aidenbach, Germany). On the following day, the cells are loaded for 60 minutes at 37° C. with 2.13 μM Fluo-4 (Molecular Probes Europe BV, Leiden, Netherlands) in HBSS buffer (Hank's buffered saline solution, Gibco Invitrogen GmbH, Karlsruhe, Germany) […] (Sigma-Aldrich, Taufkirchen, Germany) and 10 mM HEPES (Sigma-Aldrich, Taufkirchen, Germany). The plates are then washed twice with HBSS buffer, and HBSS buffer additionally containing 0.1% BSA (bovine serum albumin; Sigma-Aldrich, Taufkirchen, Germany), 5.6 mM glucose and 0.05% gelatin (Merck KGaA, Darmstadt, Germany) is added to the plates. After incubation for a further 20 minutes at room temperature, the plates are inserted into the FLIPR for Ca^2+ measurement. Alternatively, washing is carried out with buffer A (15 mM HEPES, 80 mM NaCl, 5 mM KCl, 1.2 mM CaCl2, 0.7 mM MgSO4, 2 g/l glucose, 2.5 mM probenecid) followed by loading with buffer A with added 2.5 μM Fluo-4 and 0.025% Pluronic F127 (Sigma-Aldrich, Taufkirchen, Germany). The cells are then washed twice with buffer A and incubated for 30 minutes at room temperature with buffer A additionally containing 0.05% BSA and 0.05% gelatin and are then inserted into the FLIPR for Ca^2+ measurement. The Ca^2+-dependent fluorescence is measured before and after the addition of substances (λex=488 nm, λem=540 nm). Quantification is carried out by measuring the highest fluorescence intensity (FC, fluorescence counts) over time.
(§4) The FLIPR protocol consists of two substance additions. Test substances (10 μM) are first pipetted onto the cells and the Ca^2+ influx is compared with the control (hB1R: Lys-Des-Arg^9-bradykinin >=50 nM; rB1R: Des-Arg^9-bradykinin 10 μM). This gives the activation in %, based on the Ca^2+ signal after addition of Lys-Des-Arg^9-bradykinin (>=50 nM) or Des-Arg^9-bradykinin (10 μM). After 10-20 minutes' incubation, Lys-Des-Arg^9-bradykinin (hB1R) or Des-Arg^9-bradykinin (rB1R) is applied in the concentration of the EC80, and the influx of Ca^2+ is likewise determined. Antagonists lead to suppression of the Ca^2+ influx. The % inhibition compared with the maximum achievable inhibition is calculated. […]

[2] = molecular target: T2, human B1R receptor (hB1R) (Homo sapiens, UniProt P46663); experiment: FLIPR Ca2+ functional study on bradykinin receptor 1, hB1R cells (CHO K1); format: cell-based; settings: CHO-K1, 10 μM test substance; CHO K1 cells with human B1R; agonist Lys-Des-Arg9-bradykinin at EC80; read-out: B1R antagonism, human [10 μM] % inhibition
T2 construct: expressed in transfected cells; host or cells: CHO K1 cells, stably transfected
T2 sequence (P46663 1-353): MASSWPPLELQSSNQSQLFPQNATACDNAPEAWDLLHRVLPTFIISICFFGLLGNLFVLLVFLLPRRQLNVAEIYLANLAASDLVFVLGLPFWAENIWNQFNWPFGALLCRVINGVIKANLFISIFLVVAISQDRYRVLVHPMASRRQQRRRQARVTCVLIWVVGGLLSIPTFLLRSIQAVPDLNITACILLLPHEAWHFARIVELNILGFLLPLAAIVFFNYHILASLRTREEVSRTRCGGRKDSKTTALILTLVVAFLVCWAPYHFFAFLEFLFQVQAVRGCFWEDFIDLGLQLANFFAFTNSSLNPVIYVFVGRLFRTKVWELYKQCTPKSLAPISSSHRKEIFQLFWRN
Experimental: as §1, §2, §3, §4

SMILES | inhibition at 10 µM [1] [%] | inhibition at 10 µM [2] [%]
COc1cc(C)c(S(=O)(=O)N2CCCc3ccc(CC(=O)N4CCC5(CCC(Oc6ccncc6)CC5)CC4)cc32)c(C)c1 [Compound G-30, 2-(1-(4-Methoxy-2,6-dimethylphenylsulfonyl)-1,2,3,4-tetrahydroquinolin-7-yl)-1-(9-(pyridin-4-yloxy)-3-azaspiro[5.5]undecan-3-yl)ethanone] | 98 | 46
COc1cc(C)c(S(=O)(=O)N2CCCc3ccc(CC(=O)N4CCC5(CCC(N6CCC6)CC5)CC4)cc32)c(C)c1 [Compound G-32, 1-(9-(Azetidin-1-yl)-3-azaspiro[5.5]undecan-3-yl)-2-(1-(4-methoxy-2,6-dimethylphenylsulfonyl)-1,2,3,4-tetrahydroquinolin-7-yl)ethanone] | 102 | 91
COc1cc(C)c(S(=O)(=O)N2CCCc3ccc(CC(=O)N4CCC5(CC4)CC(c4ccncc4)=NO5)cc32)c(C)c1 [Compound G-33, 2-(1-(4-Methoxy-2,6-dimethylphenylsulfonyl)-1,2,3,4-tetrahydroquinolin-7-yl)-1-(3-(pyridin-4-yl)-1-oxa-2,8-diazaspiro[4.5]dec-2-en-8-yl)ethanone] | 73 | 65
COc1cc(C)c(S(=O)(=O)N2CCCc3ccc(CC(=O)N4CCC5(CCC(N6CC(F)(F)C6)CC5)CC4)cc32)c(C)c1 [Compound G-34, 1-(9-(3,3-Difluoroazetidin-1-yl)-3-azaspiro[5.5]undecan-3-yl)-2-(1-(4-methoxy-2,6-dimethylphenylsulfonyl)-1,2,3,4-tetrahydroquinolin-7-yl)ethanone] | 86 | 18
O=C(Cc1ccc2c(c1)N(S(=O)(=O)c1ccc(OC(F)(F)F)cc1Cl)CCC2)N1CCC2(CC1)CCN(c1ccncc1)CC2 [Compound G-35, 2-(1-(2-Chloro-4-(trifluoromethoxy)phenylsulfonyl)-1,2,3,4-tetrahydroquinolin-7-yl)-1-(9-(pyridin-4-yl)-3,9-diazaspiro[5.5]undecan-3-yl)ethanone] | 101 | 79
COc1cc(C)c(S(=O)(=O)N2CCc3cccc(C(=O)N4CCC5(CC4)CCN(c4ccncc4)CC5)c3C2)c(C)c1 [Compound G-36, (2-(4-Methoxy-2,6-dimethylphenylsulfonyl)-1,2,3,4-tetrahydroisoquinolin-8-yl)(9-(pyridin-4-yl)-3,9-diazaspiro[5.5]undecan-3-yl)methanone] | 99 | 99
Cc1cccc(Cl)c1S(=O)(=O)N1CCc2cccc(C(=O)N3CCC4(CC3)CCN(c3ccncc3)CC4)c2C1 [Compound G-37, (2-(2-Chloro-6-methylphenylsulfonyl)-1,2,3,4-tetrahydroisoquinolin-8-yl)(9-(pyridin-4-yl)-3,9-diazaspiro[5.5]undecan-3-yl)methanone] | 90 | 99
O=C(c1cccc2c1CN(S(=O)(=O)c1cccc(Cl)c1Cl)CC2)N1CCC2(CC1)CCN(c1ccncc1)CC2 [Compound G-38, (2-(2,3-Dichlorophenylsulfonyl)-1,2,3,4-tetrahydroisoquinolin-8-yl)(9-(pyridin-4-yl)-3,9-diazaspiro[5.5]undecan-3-yl)methanone] | 91 | 97
COc1cc(C)c(S(=O)(=O)N2CCc3ccc(CC(=O)N4CCC5(CC4)CCN(c4ccncc4)CC5)cc3C2)c(C)c1 [Compound G-39, 2-(2-(4-Methoxy-2,6-dimethylphenylsulfonyl)-1,2,3,4-tetrahydroisoquinolin-7-yl)-1-(9-(pyridin-4-yl)-3,9-diazaspiro[5.5]undecan-3-yl)ethanone] | 89 | 99
COc1cc(C)c(S(=O)(=O)N2CCn3cc(C(=O)N4CCC5(CC4)CCN(c4ccncc4)CC5)nc3C2)c(C)c1 [Compound G-40, (7-(4-Methoxy-2,6-dimethylphenylsulfonyl)-5,6,7,8-tetrahydroimidazo[1,2-a]pyrazin-2-yl)(9-(pyridin-4-yl)-3,9-diazaspiro[5.5]undecan-3-yl)methanone] | 102 | 100
O=C(/C=C/c1ccccc1Cl)N1CCc2ccc(C(=O)N3CCC4(CC3)CCN(c3ccncc3)CC4)cc2C1 [Compound G-41, 3-(2-Chlorophenyl)-1-(7-(9-(pyridin-4-yl)-3,9-diazaspiro[5.5]undecane-3-carbonyl)-3,4-dihydroisoquinolin-2(1H)-yl)prop-2-en-1-one] | 90 | 99
O=C(c1ccc2c(c1)CN(C(=O)c1ccc(Cl)s1)CC2)N1CCC2(CC1)CCN(c1ccncc1)CC2 [Compound G-42, (5-Chlorothiophen-2-yl)(7-(9-(pyridin-4-yl)-3,9-diazaspiro[5.5]undecane-3-carbonyl)-3,4-dihydroisoquinolin-2(1H)-yl)methanone] | 102 | 100
O=C(Cc1ccccc1Cl)N1CCc2ccc(C(=O)N3CCC4(CC3)CCN(c3ccncc3)CC4)cc2C1 [Compound G-43, 2-(2-Chlorophenyl)-1-(7-(9-(pyridin-4-yl)-3,9-diazaspiro[5.5]undecane-3-carbonyl)-3,4-dihydroisoquinolin-2(1H)-yl)ethanone] | 102 | 99
O=C(c1ccc(Cl)s1)N1CCc2cccc(C(=O)N3CCC4(CC3)CCN(c3ccncc3)CC4)c2C1 [Compound G-44, (5-Chlorothiophen-2-yl)(8-(9-(pyridin-4-yl)-3,9-diazaspiro[5.5]undecane-3-carbonyl)-3,4-dihydroisoquinolin-2(1H)-yl)methanone] | 62 | 99
O=C(NCc1ccccc1Cl)N1CCc2ccc(C(=O)N3CCC4(CC3)CCN(c3ccncc3)CC4)cc2C1 [Compound G-45, N-(2-Chlorobenzyl)-7-(9-(pyridin-4-yl)-3,9-diazaspiro[5.5]undecane-3-carbonyl)-3,4-dihydroisoquinoline-2(1H)-carboxamide] | 97 | 97
